# From the NIST ThermoML archive (doi:10.1021/je301219c)
# ± gives the expanded uncertainty stated by the source.
# Details: Liquid, Ebulliometric method (Recirculating still)
smiles,measurement,setting,value
CCN(CC)CCO [(diethylamino)ethanol],vapor or sublimation pressure,418.34 K,60 ± 1.2 kPa
same,vapor or sublimation pressure,435.94 K,101.3 ± 2.1 kPa
CCNCC [diethylamine],vapor or sublimation pressure,313.64 K,60 ± 1 kPa
same,vapor or sublimation pressure,328.67 K,101.3 ± 1.8 kPa
CO [methanol],vapor or sublimation pressure,324.92 K,60 ± 0.87 kPa
same,vapor or sublimation pressure,337.82 K,101.3 ± 1.6 kPa
